Source: PMC7922932, “Molecular Dissection of Escherichia coli CpdB: Roles of the N Domain in Catalysis and Phosphate Inhibition, and of the C Domain in Substrate Specificity and Adenosine Inhibition” (International Journal of Molecular Sciences, 2021)
Several values for one entry are separate records, joined by “and”; a condition that tells them apart may be missing. Equal entries are not always repeated. Where two headings read alike, the source gives them in different places.

Legend:
[1] = target: T1, CpdB_Ndom (N-terminal domain of CpdB) (Escherichia coli, UniProt P08331, D305N/I97V/M87I); type: biochemical; details: for K M / k cat / k cat /K M: CpdB_Ndom, substance is the substrate, mean ± SD of three experiments; for Activity of CpdB_Ndom on substrate (hydrolytic rate): fixed 750 µM substrate concentration
T1 construct: GST (N, cleaved yes); made in house; host or cells: E. coli BL21
T1 sequence (P08331 20-354 M87I/I97V/D305N): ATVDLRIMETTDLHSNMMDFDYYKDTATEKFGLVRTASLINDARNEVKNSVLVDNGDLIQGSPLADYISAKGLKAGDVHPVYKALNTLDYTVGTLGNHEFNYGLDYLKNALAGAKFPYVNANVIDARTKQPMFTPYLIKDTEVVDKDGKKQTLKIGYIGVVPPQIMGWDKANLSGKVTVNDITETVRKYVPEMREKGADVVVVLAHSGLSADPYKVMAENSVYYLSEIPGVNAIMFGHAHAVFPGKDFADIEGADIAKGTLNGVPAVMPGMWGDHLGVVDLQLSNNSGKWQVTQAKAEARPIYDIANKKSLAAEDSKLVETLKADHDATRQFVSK
Description: With all the detectably hydrolyzed substrates, saturation kinetics was studied and parameters kcat and KM were determined from Michaelis-Menten plots (Table 1).
The same assay was used with 2′,3′- or 3′,5′-cyclic nucleotides, CDP-choline and bis-4-NPP except that an excess of alkaline phosphatase was included in the reaction mixture as auxiliary enzyme.
Datasets obtained with different substrates in the absence of inhibitors were used to derive kcat and KM values by adjusting the Michaelis-Menten equation to the experimental points by non-linear regression.

CpdB_Ndom [2] = target: T2, CpdB_Ndom (Escherichia coli, UniProt P08331, D305N/I97V/M87I); type: biochemical; details: CpdB_Ndom; for IC50: 750 µM bis-4-NPP as the substrate, single illustrative experiments; for Ki: substrate bis-4-NPP, estimated from inhibitor dose-response curves (Figure 6), read-out: Inhibition constant (Ki)
T2 construct: GST (N, cleaved yes); made in house; host or cells: E. coli BL21
T2 sequence (P08331 20-354 M87I/I97V/D305N): as above

CpdB_Ndom [3] = target: T2, CpdB_Ndom; assay: Products of the hydrolysis of cyclic (di)nucleotides by CpdB_Ndom (HPLC); type: biochemical; details: 2′,3′-cAMP at 500 µM
Source text: (§4) The procedures and detailed conditions to measure the initial rates of phosphohydrolytic reactions were as earlier described [4]. […] The same assay was used with 2′,3′- or 3′,5′-cyclic nucleotides, CDP-choline and bis-4-NPP except that an excess of alkaline phosphatase was included in the reaction mixture as auxiliary enzyme.

CpdB_Ndom [4] = target: T2, CpdB_Ndom; assay: biochemical
Description: Substrate saturation experiments were run in the absence and the presence of one of these inhibitors at fixed concentrations (Figure 7).
(§1) Reaction mixtures of 100 µL contained, besides the needed amount of enzyme (i.e., 0.02–0.05 µg/mL of mature CpdB, 2 µg/mL of a CpdB point mutant, or 0.2 µg/mL of CpdB_Ndom), 50 mM Tris [Tris(hydroxymethyl)aminomethane]-HCl pH 7.5 (adjusted at 37 °C), 2 mM MnCl2, 0.1 mg/mL bovine serum albumin, and the indicated concentrations of bis-4-NPP and the compound tested as inhibitor. Incubations performed at 37 °C were stopped by addition of 0.5 mL of 200 mM Tris, pH 8.9, 5 mM EDTA (ethylenediaminetetraacetate), immediately followed by A405 measurement (ε = 18.1 mM^−1 cm^−1). This termination procedure was used instead of the addition of a high NaOH concentration, to avoid the known formation of brown precipitates of air-oxidized Mn^2+ hydroxide. On occasions, when a higher sensitivity was needed, reaction mixtures of 500 µL were implemented and termination was performed with 0.1 mL 1M Tris, pH 8.9, 30 mM EDTA.

Mature CpdB [5] = target: T3, Mature CpdB (Escherichia coli, UniProt P08331); assay: biochemical; type: biochemical; set-up: A structural model of mature CpdB (aa 20–647) was built; GST (N, cleaved yes); made in house; host or cells: E. coli BL21
T3 sequence (P08331 20-647): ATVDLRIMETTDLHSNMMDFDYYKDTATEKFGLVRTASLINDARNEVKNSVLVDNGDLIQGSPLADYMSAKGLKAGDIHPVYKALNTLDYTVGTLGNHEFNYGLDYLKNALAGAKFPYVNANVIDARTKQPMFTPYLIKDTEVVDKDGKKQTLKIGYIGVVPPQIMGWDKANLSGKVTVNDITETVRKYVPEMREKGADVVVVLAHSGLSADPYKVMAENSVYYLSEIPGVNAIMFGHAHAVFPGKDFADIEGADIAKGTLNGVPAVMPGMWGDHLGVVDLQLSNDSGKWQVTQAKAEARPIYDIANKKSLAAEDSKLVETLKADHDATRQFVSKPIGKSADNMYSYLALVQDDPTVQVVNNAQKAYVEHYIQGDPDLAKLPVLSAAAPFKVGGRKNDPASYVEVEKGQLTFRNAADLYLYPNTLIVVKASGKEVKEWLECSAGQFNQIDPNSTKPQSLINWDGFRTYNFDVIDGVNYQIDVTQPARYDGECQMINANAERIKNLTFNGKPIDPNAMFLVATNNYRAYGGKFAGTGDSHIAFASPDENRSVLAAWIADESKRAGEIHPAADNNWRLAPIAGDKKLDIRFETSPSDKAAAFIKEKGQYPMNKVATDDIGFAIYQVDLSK
Description: as §1

Mature CpdB [6] = target: T3, Mature CpdB; set-up: A structural model of mature CpdB (aa 20–647) was built; GST (N, cleaved yes); made in house; host or cells: E. coli BL21; details: substance is the substrate; cited from earlier work
His^117Ala-CpdB = target: T4, His^117Ala-CpdB (Escherichia coli, UniProt P08331, D305N/H117A/I514V/I97V/M87I/N471D/S472N); type: biochemical; details: for Catalytic efficiency (kcat/KM) lower than wild-type mature CpdB: His^117Ala-CpdB versus wild-type mature CpdB, same substrate; for K M / k cat / k cat /K M: His^117Ala-CpdB, substance is the substrate
T4 construct: A structural model of mature CpdB (aa 20–647) was built; GST (N, cleaved yes); made in house; host or cells: E. coli BL21
T4 sequence (P08331 20-647 M87I/I97V/H117A/D305N/N471D/S472N/I514V): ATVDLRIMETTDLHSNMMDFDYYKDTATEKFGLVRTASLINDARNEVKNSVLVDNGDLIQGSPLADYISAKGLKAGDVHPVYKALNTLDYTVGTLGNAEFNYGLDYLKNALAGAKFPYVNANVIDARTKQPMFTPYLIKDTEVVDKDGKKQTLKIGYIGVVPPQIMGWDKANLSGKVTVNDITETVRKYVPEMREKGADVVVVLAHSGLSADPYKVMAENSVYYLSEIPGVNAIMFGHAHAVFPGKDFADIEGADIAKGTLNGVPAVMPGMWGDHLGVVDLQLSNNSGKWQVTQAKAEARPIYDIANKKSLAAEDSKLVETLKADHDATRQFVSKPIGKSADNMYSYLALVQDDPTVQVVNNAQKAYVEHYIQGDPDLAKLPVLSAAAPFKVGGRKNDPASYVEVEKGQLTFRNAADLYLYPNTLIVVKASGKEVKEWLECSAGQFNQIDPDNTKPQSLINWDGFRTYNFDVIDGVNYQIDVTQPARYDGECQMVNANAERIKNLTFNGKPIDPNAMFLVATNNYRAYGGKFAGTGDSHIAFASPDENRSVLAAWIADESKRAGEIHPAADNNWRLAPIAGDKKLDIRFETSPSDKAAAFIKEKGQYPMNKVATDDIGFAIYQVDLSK
Source text: (§2) The role of the possible catalytic and substrate-binding sites was additionally tested by the preparation of two point mutants of the mature CpdB protein. On the one hand, the mutation His^117Ala modified the histidine residue conserved in the N domain (Figure 1b) with respect to UshA, where it has been proposed to be part of the catalytic core structure and to act as a general base that facilitates the nucleophilic attack by deprotonating a water molecule, and to participate in the stabilization of the transition state. […] On the other hand, mutation Tyr^544Ala modified one of the aromatic residues of CpdB which are conserved in the C domain with respect to the UshA phenylalanine residues that form a stacked sandwich with the adenine ring of the substrate.

Tyr^544Ala-CpdB [7] = type: biochemical, Escherichia coli; details: Tyr^544Ala-CpdB versus wild-type mature CpdB
Source text: as §2

Tyr^544Ala-CpdB [8] = target: T5, Tyr^544Ala-CpdB (Escherichia coli, UniProt P08331, D305N/I514V/I97V/M87I/N471D/S472N/Y544A); type: biochemical; details: Tyr^544Ala-CpdB; substance is the substrate
T5 construct: A structural model of mature CpdB (aa 20–647) was built; GST (N, cleaved yes); made in house; host or cells: E. coli BL21
T5 sequence (P08331 20-647 M87I/I97V/D305N/N471D/S472N/I514V/Y544A): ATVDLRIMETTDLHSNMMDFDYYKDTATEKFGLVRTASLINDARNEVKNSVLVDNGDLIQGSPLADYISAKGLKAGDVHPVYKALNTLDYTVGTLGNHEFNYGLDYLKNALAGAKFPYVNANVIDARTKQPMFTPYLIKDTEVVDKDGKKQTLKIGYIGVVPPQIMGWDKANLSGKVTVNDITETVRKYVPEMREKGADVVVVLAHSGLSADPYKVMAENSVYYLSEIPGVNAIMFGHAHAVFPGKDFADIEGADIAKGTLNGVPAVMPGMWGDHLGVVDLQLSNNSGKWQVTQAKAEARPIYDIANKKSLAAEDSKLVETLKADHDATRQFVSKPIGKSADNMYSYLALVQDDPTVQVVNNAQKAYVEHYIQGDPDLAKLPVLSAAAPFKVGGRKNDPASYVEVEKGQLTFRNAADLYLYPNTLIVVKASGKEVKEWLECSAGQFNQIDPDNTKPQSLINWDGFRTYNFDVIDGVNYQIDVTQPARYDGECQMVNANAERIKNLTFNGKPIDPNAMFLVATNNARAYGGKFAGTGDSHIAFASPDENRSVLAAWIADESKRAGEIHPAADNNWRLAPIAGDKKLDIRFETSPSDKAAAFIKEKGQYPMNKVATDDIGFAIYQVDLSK
Source text: as §2

Mature CpdB [9] = target: T3, Mature CpdB; details: for Ki: read-out: Inhibition constant (Ki), mature CpdB, substrate 3′-AMP, global fit, mixed partial inhibition (Figure 5)
Source text: (§5) In this approach, inhibitors were used as probes for the relevance of those enzyme sites, irrespective of the physiological character and concentrations of the compounds used.
as §4
(§6) The procedures followed to derive kinetic parameters kcat, KM and Ki from initial rate vs. substrate concentration datasets, either in the presence or the absence of inhibitor, were as described elsewhere [49]. Datasets obtained with different substrates in the absence of inhibitors were used to derive kcat and KM values by adjusting the Michaelis-Menten equation to the experimental points by non-linear regression. […] Each one of these equations was simultaneously adjusted (global fit) by nonlinear regression to the three saturation curves of each inhibition experiment, using the Solver function of Microsoft Excel. During the adjustments, Vmax, KM and Ki were left to fluctuate. […] In each set of experiments, the type of inhibition that gave the best fit was used as the model to estimate Ki values.

[10] = target: T6, His^117Ala-CpdB (H117A-CpdB) (Escherichia coli, UniProt P08331, D305N/H117A/I514V/I97V/M87I/N471D/S472N); assay: biochemical
T6 construct: A structural model of mature CpdB (aa 20–647) was built; GST (N, cleaved yes); made in house; host or cells: E. coli BL21
T6 sequence (P08331 20-647 M87I/I97V/H117A/D305N/N471D/S472N/I514V): as the sequence (P08331 20-647 M87I/I97V/H117A/D305N/N471D/S472N/I514V) above
Description: (§3) The two point mutants His^117Ala and Tyr^544Ala of mature CpdB were also tested for the inhibition of the hydrolysis of bis-4-NPP by adenosine.
as §1

[11] = target: T7, Tyr^544Ala-CpdB (Y544A-CpdB) (Escherichia coli, UniProt P08331, D305N/I514V/I97V/M87I/N471D/S472N/Y544A); assay: biochemical
T7 construct: A structural model of mature CpdB (aa 20–647) was built; GST (N, cleaved yes); made in house; host or cells: E. coli BL21
T7 sequence (P08331 20-647 M87I/I97V/D305N/N471D/S472N/I514V/Y544A): as the sequence (P08331 20-647 M87I/I97V/D305N/N471D/S472N/I514V/Y544A) above
Description: as §3, §1

Mature CpdB [12] = target: T3, Mature CpdB; assay: biochemical
Source text: as §5, §4, §6

CpdB_Ndom [13] = type: biochemical, Escherichia coli; details: CpdB_Ndom versus CpdB; bis-4-NPP as substrate
[14] = CpdB_Ndom, substrate bis-4-NPP, global fit, complete competitive inhibition (Figure 7), read-out: Inhibition constant (Ki)
[15] = mature CpdB, 750 µM bis-4-NPP as the substrate, single illustrative experiments, read-out: IC50
[16] = mature CpdB, substrate bis-4-NPP, global fit, mixed partial inhibition (Figure 5), values without SD are single experiments, read-out: Inhibition constant (Ki)

Molecule | K M [1] [µM] | k cat [1] [s⁻¹] | k cat /K M [1] | IC50 (CpdB_Ndom [2]) [µM] | Ki (CpdB_Ndom [4]; [14]) [µM] | IC50 (Mature CpdB [5]; [15]) [µM] | Ki (Mature CpdB [5]; [16]) [µM] | K M (Mature CpdB [6]) [µM] | k cat (Mature CpdB [6]) [s⁻¹] | KM increase by the Tyr^544Ala mutation (Tyr^544Ala-CpdB [7]) | K M (Tyr^544Ala-CpdB [8]) [µM] | k cat (Tyr^544Ala-CpdB [8]) [s⁻¹] | Activity of CpdB_Ndom on substrate (hydrolytic rate) [1] | further results
Nc1ncnc2c1ncn2[C@@H]1O[C@H](CO)[C@H]2OP(=O)(O)O[C@H]21 [2′,3′-cAMP] | 390 ± 170 | 73 ± 32 | 190,000 ± 13,000 M^−1 s^−1 | 840 | 460 ± 50 | 56 | 5 ± 0.4 | 27 | 190 | 60 fold | 1600 ± 550 | 190 ± 60 |  | 2′-AMP as product of hydrolysis (CpdB_Ndom [3]): 15%; 3′-AMP as product of hydrolysis (CpdB_Ndom [3]): 85%; k cat /K M (catalytic efficiency) (Mature CpdB [6]): 7,300,000 M^−1 s^−1; Catalytic efficiency (kcat/KM) lower than wild-type mature CpdB (His^117Ala-CpdB): 5000 fold; K M (His^117Ala-CpdB): 126 ± 7 µM; k cat (His^117Ala-CpdB): 0.18 ± 0.02 s⁻¹; k cat /K M (His^117Ala-CpdB): 1500 ± 230 M⁻¹ s⁻¹; k cat /K M (Tyr^544Ala-CpdB [8]): 140,000 ± 73,000 M^−1 s^−1
Nc1ncnc2c1ncn2[C@@H]1O[C@H](CO)[C@@H](O)[C@H]1OP(=O)(O)O [2′-AMP] |  |  |  | 920 |  | 100 | 8.8 ± 2 |  |  |  |  |  | absence of detectable activity | Ki (CpdB_Ndom [2]): 600 µM; IC50 (Mature CpdB [9]): 320 µM; Ki (Mature CpdB [9]): 7.1 ± 3.2 µM
Nc1ncnc2c1ncn2[C@@H]1O[C@H](CO)[C@@H](OP(=O)(O)O)[C@H]1O [3′-AMP] | 880 ± 250 | 0.004 ± 0.0002 | 5 M⁻¹ s⁻¹ and 5.2 ± 1.0 M⁻¹ s⁻¹ | 4100 | 3300 ± 550 | 54 | 3.6 ± 0.2 | 14 | 176 | 60 fold | 850 ± 110 | 160 ± 37 | almost complete loss of activities | Stronger loss of catalytic efficiency than on 2′,3′-cAMP caused by the deletion of the C domain ([1]; CpdB_Ndom versus mature CpdB): 10^5 fold; Activity of His^117Ala-CpdB on substrate (His^117Ala-CpdB): essentially inactive
Nc1ncnc2c1ncn2[C@@H]1O[C@H](COP(=O)(O)O)[C@@H](O)[C@H]1O [5′-AMP] |  |  |  | 560 | 370 ± 50 | 110 | 14 |  |  |  |  |  | absence of detectable activity | IC50 (Mature CpdB [9]): 900 µM; Ki (Mature CpdB [9]): 20 ± 8 µM
Nc1ncnc2c1ncn2[C@@H]1O[C@H](COP(=O)(O)OP(=O)(O)O)[C@@H](O)[C@H]1O [ADP] |  |  |  |  |  | 1100 | 60 |  |  |  |  |  |  | 
Nc1ncnc2c1ncn2[C@@H]1O[C@H](COP(=O)(O)OP(=O)(O)OP(=O)(O)O)[C@@H](O)[C@H]1O [ATP] |  |  |  | 8700 |  | 720 | 113 ± 19 |  |  |  |  |  |  | Ki (CpdB_Ndom [2]): 5700 µM
Nc1ncnc2c1ncn2[C@@H]1O[C@H](CO)[C@@H](O)[C@H]1O [Adenosine, adenosine] |  |  |  |  |  |  |  |  |  |  |  |  |  | IC50 [10]: 2000 µM; IC50 [11]: ~30000 µM; IC50 (CpdB_Ndom [4]): > 10000 µM; Ki (CpdB_Ndom [4]): 48000 µM; IC50 (Mature CpdB [5]): 870 µM; Ki (Mature CpdB [5]): 160 µM; IC50 (Mature CpdB [12]): 3250 µM; Ki (Mature CpdB [12]): 41 ± 17 µM
O=[N+]([O-])c1ccc(OP(=O)(O)Oc2ccc([N+](=O)[O-])cc2)cc1 [bis-4-NPP, bis-4-nitrophenylphosphate] | 1300 ± 80 | 164 ± 14 | 130,000 ± 7000 M^−1 s^−1 |  |  |  |  | 96 | 340 | five-fold | 430 ± 30 | 130 ± 34 |  | k cat /K M (catalytic efficiency) (Mature CpdB [6]): 3.6 × 10^6 M^−1 s^−1 and 3,600,000 M^−1 s^−1; Catalytic efficiency (kcat/KM) lower than wild-type mature CpdB (His^117Ala-CpdB): 60 fold; K M (His^117Ala-CpdB): 440 ± 90 µM; k cat (His^117Ala-CpdB): 26 ± 3 s⁻¹; k cat /K M (His^117Ala-CpdB): 60,000 ± 7000 M^−1 s^−1; k cat /K M (Tyr^544Ala-CpdB [8]): 300,000 ± 100,000 M^−1 s^−1
phosphate |  |  |  | 1700 | 1060 ± 210 | 9000 | 1380 ± 340 |  |  |  |  |  |  | Ki increase in the absence of the C-terminal domain (CpdB_Ndom [13]): did not change
